Reference: US20110046067A1, “COMPOSITIONS COMPRISING HUMAN EGFR-siRNA AND METHODS OF USE” (Intradigm Corporation, priority 2007, published 2011)
Entries after “also recorded” stand apart in the source; their conditions may differ.

System: hEGFR
Assay: hEGFR dose titration in HT-29 cells (electroporation, hEGFR ELISA)
Format: cell-based, human
Conditions: 0.01-10 ug siRNA per 2×10^6 cells/200 μl, 48 hours post transfection
Experimental: The selected hEGFR-siRNA, hEGFR-25-1 and hEGFR-25-2, were tested for their capability of inhibiting hEGFR expression in a dose-dependent manner. The HT-29 cells were transfected with the EGFR-siRNAs in a range of 0.01-10 ug siRNA per 2×10^6 cells/200 μl using an electroporation mediated transfection method. The concentration of EGFR protein in the transfected HT-29 cells was measured at 48 hours post transfection using a hEGFR ELISA kit (R&D Systems, Inc.). The concentration of hEGFR protein was normalized against total cellular protein and the percentage of hEGFR inhibition was normalized against cells treated with a mock process without siRNA.
Two siRNA candidates, hEGFR-25-1 and hEGFR-25-2, were further tested for activity in a dose titration experiment.

Row | Substance | dose-dependent inhibition of hEGFR production
1 | 5′-r(CACAGUGGAGCGAAUUCCUUUGGAA)-3′ (chain 2 UUCCAAAGGAAUUCGCUCCACUGUG; siRNA; RNA, backbone not given here) [hEGFR-25-1] | inhibited hEGFR expression in a dose-dependent manner; also recorded: dose-dependent inhibition
2 | 5′-r(CGCAAAGUGUGUAACGGAAUAGGUA)-3′ (chain 2 UACCUAUUCCGUUACACACUUUGCG; siRNA; RNA, backbone not given here) [hEGFR-25-2] | inhibited hEGFR expression in a dose-dependent manner; also recorded: dose-dependent inhibition
